pIC50: −log10 of the molar value. Values joined by “and” are separate entries in the source; they are usually repeats but may differ in a detail not shown here. Equal values may be shown once. “Also recorded” adds a separate entry of the source. Read-outs that look alike come from different tables or passages of the source.
What was measured:
[1] = system: myelin-basic protein (MBP) specific, CD4-positive rat T cells; test: In vitro proliferation assay (rat encephalitogenic T cells); type: cell-based; details: for pIC50: Rattus norvegicus, CD4 positive, 3H-thymidine incorporation; for proliferation: T-lymphocytes, summary statement
Protocol: A more downstream event of T cell activation was analyzed in myelin-basic protein (MBP) specific, CD4-positive rat T cells. These cells can be driven into proliferation by MBP presented by irradiated thymocytes or by the mitogen concanavalin A (ConA).
Resting MBP-GFP T cells were plated in 96-wells (5×10^4 well) and stimulated by the addition of thymocytes (1.5×10^6/well) and MBP ([…]) or ConA (1.25 μg/ml), respectively.
After 2 days 3H-thymidine (Amersham Biosciences) was added to the activated cells (final concentration 4 μCi/ml); after 16 h of incubation 3H-thymidine incorporation was measured (Matrix 9600-Direct Beta Counter Packad).
(§1) Cells were stimulated in presence of MBP-pulsed irradiated APCs and increasing concentrations of BZ194. After 48 h cells were collected for cytofluorometric cell count A and RNA extraction was performed for quantitative PCR analysis (IL2) B. Effect of BZ194 on pre-activated T cell blasts C. Amplification of MBP-specific T cells which had been incubated before in the presence of DMSO or 0.5 mM or 1 mM BZ194 D.
TMBP-GFP cells were co-cultured for 48 h in 96well plates (in DMEM 1% rat serum) with APCs in presence of specific antigen ([…]) or without. Amplification of TMBP-GFP cells was measured by cytofluorometry as described (Kawakami et al. 2005, J.I.). Their numbers were determined in relation to a known absolute number of added phycoerythrin-labeled plastic beads (Becton-Dickinson). The amplification rate was calculated in relation to the GFP+T cell numbers at day 0. Alternatively, [^3H]dT (2 Ci/mmol; Amersham-Buchler) incorporation was used to evaluate proliferation. The radioactive label present in the different cultures was determined as described (Flügel et al., 2001, Immunity)

[2] = system: transfer experimental autoimmune encephalomyelitis (EAE) in Lewis rats; test: Transfer experimental autoimmune encephalomyelitis (EAE); type: in vivo, Lewis rat
From the text: Transfer of MBP-specific CD4-positive T cells was used at day 0 to induce experimental autoimmune encephalomyelitis (EAE) in Lewis rats. Animals injected with PBS (vehicle) or nicotinic acid (control compound with structural similarities to BZ52) developed severe paralysis of tail and rear legs due to the inflammation. Clinical symptoms started day 3.5 and reached their maxima day 4 to 6 (or 6.5). Between day 3.5 and day 6, no difference between PBS and nicotinic acid was observed, whereas a beneficial effect of BZ52 was visible (FIG. 14).
Animals (6 per group, body weight approx. 150 g) were injected i.p. twice per day with either PBS (vehicle control), nicotinic acid (50 μmol/100 g body weight), or BZ 52 (50 μmol/100 g body weight). Clinical scores indicate the degree of paralysis of tail and legs. Data are presented as mean±SD from one representative experiment (n=6).
Animals (6 per group, body weight approx. 150 g) were injected i.p. twice per day with either PBS (vehicle control), nicotinic acid (50 μmol/100 g body weight), or BZ 52 (50 μmol/100 g body weight). […] Data are presented as mean±SD from one representative experiment (n=6).
5×10^6 activated MBP specific-GFP Tcells were transferred i.v. into recipient Lewis rats. Clinical EAE was graded in five scores: 0.5, loss of tail tonus; 1, tail paralysis; 2, gait disturbance; 3, hind limb paralysis; 4, tetraparesis; 5, death.
Animals' weight was measured twice a day.
In order to analyze the effect of BZ194 on encephalitogenic T cells during the effector phase of EAE we used retrovirally transduced MBP-specific T cells expressing the marker gene green fluorescent protein (TMBP-GFP cells).
Animals were treated for 5 d intraperitoneally with 500 μmol BZ194 or vehicle (DMSO).

[3] = system: myelin-basic protein (MBP) specific, CD4-positive rat T cell blasts; test: In vitro toxicity assay on T cell blasts; type: cell-based
Protocol: Resting MBP-GFP Tcells were plated in 96-wells (5×10^4/well). Substances to test were added at different concentration to the cells and incubated for 1 h.
Cells stimulated by the addition of thymocytes (1.5×10^6/well) and MBP.
Absolute numbers of MBP-GFP T cells were determined by quantitative cytofluorometrical analysis after 24 and 48 hours (FACS-Calibur BektonDickinson).
Activated MBP-GFP Tcells were also incubated with different concentration of substances to test and absolute numbers of MBP-GFP T cells were determined by quantitative cytofluorometrical analysis after 24 and 48 hours (FACS-Calibur BektonDickinson).
as §1

[4] = system: T cell receptor/CD3 complex mediated Ca2+ signalling; test: Ca2+ signalling evoked by crosslinking of CD3 in rat encephalitogenic (MBP-specific) T cells; type: cell-based; details: for TCR/CD3-induced Ca2+ signalling: T-lymphocytes, summary statement
From the text: Assuming that the NAADP/Ca^2+ signalling system plays an important role in T cell receptor/CD3 mediated activation, one would expect an inhibitory effect of BZ 52 on stimulation of rat encephalitogenic CD4-positive T cells via CD3 crosslinking. Thus, Fura2-loaded rat encephalitogenic CD4-positive T cells (resting) were stimulated by anti-CD3 followed by crosslinking of the primary antibody (FIG. 11, black line). A rapid high increase of [Ca^2+]i followed by a briefly elevated sustained phase was observed.
Fura2-loaded rat T cells were analyzed for [Ca^2+]i by fluorimetry. First arrow indicates addition of anti-CD3 mAb, second arrow indicates addition of a crosslinking secondary antibody. In case of BZ 52 cells were preincubated with BZ 52 (500 μM) for 60 min at RT.
Resting rat T cells were loaded with fura2/AM and suspension measurements were carried out as described in [4]. Arrows indicate time point of addition of antibody or Ca^2+ solution. A, Addition of anti-CD3-mAb (1st arrow) and a crosslinking, secondary antibody (2nd arrow). B, Bar chart summarizing data from A (transient Ca^2+ peak and Ca^2+ plateau; mean±s.e.m, n=8-9). C, Under Ca^2+ free conditions the anti-CD3-mAb (1st arrow) and secondary crosslinking antiserum (2nd arrow) were added; then [Ca^2+] was increased to 1 mM (3rd arrow). D, Bar chart summarizing data from C (transient Ca^2+ release peak, Ca^2+ influx peak, Ca^2+ influx plateau and the difference between Ca^2+ influx peak and plateau (=Overshoot); mean±s.e.m, n=6-7). The negative controls are without stimulation by anti-CD3-mAb.
[Ca^2+]i was measured by using the fluorescent indicator Fura2/AM. In brief, 10^7 cells were loaded with Fura2/AM, and fluorescence was determined in batches of 1.5×10^6 cells with an Hitachi F-2000 fluorimeter at excitation and emission wavelengths of 340 and 380 nm (exc.) and 505 nm (em.), respectively. Measurements were carried out at 20° C. At the end of each single measurement maximal and minimal ratios were determined by addition of Triton X-100 and EGTA/Tris.

[5] = 500 μmol BZ194 i.p. for 5 d, mean±SD, Experiments I-III

Compound | pIC50 ([1]; light or radiation study, MBP presented by irradiated thymocytes, read-out: IC50, MBP mediated proliferation) | pIC50 ([1]; ConA 1.25 μg/ml, read-out: IC50, ConA mediated proliferation) | proliferation [1] | decrease in body weight ([2]; 50 μmol/100 g body weight i.p. twice per day) | clinical symptoms (clinical score) vs PBS ([2]; 50 μmol/100 g body weight i.p. twice per day, day 3.5 to day 6) | number of T cell blasts ([3]; BZ52 up to 500 μM, 48 h, non-proliferating cells) | TCR/CD3-induced Ca2+ signalling [4] | Ca2+ signalling upon CD3-crosslinking ([4]; preincubation 60 min with 500 μM BZ52) | T cell proliferation ([1]; MBP-pulsed irradiated APCs, increasing concentrations of BZ194, 48 h) | proliferative response towards MBP challenge ([1]; after foregoing incubation with 0.5 mM or 1 mM BZ194) | viability and reactivity of TMBP-GFP cells ([1]; cells isolated ex vivo from BZ194-treated animals, challenge with MBP (not shown)) | Max. body weight loss (%) [2, 5] | Max. clinical score [2, 5] | clinical EAE (clinical score) ([2]; intraperitoneal BZ194, EAE by i.v. transfer of 5×10^6 TMBP-GFP cells) | amplification of pre-activated MBP-specific T cells ([3]; in the presence of BZ194) | TCR/CD3 complex mediated Ca2+ signalling ([4]; MBP-specific rat T cell suspensions, standard and Ca2+-free/Ca2+-reintroduction protocol) | sustained Ca2+ signalling ([4]; both protocols, MBP-specific rat T cells)
CCCCN(CCCC)C(=O)C[n+]1cccc(C(=O)O)c1 [BZ52, 3-Carboxy-1-dibutylcarbamoylmethyl-pyridinium] | ~3.30 | ~4.00 | efficiently inhibited | less pronounced decrease | a less rapid increase of symptoms, a decreased maximum score and a more rapid decline of clinical symptoms | did not much reduce | efficiently inhibited | significantly inhibited | – | – | – | – | – | – | – | – | –
CCCCCCCCNC(=O)C[n+]1cccc(C(=O)O)c1.[Br-] [BZ194, 3-Carboxy-1-Octylcarbamoylmethyl-Pyridinium] | – | – | efficiently inhibited | – | – | – | efficiently inhibited | – | anti-proliferative effect; also recorded: dose dependently suppressed | did not block | remained viable and fully reactive | 8 ± 1.6% and 10 ± 4.4% and 9 ± 4.3% | 1.6 ± 0.5 and 1.4 ± 0.8 | suppressed; also recorded: significantly ameliorated | not influenced | partially blocked | almost completely abolished
